The experiment deals with T1, USP28 (His-tagged USP28-FL-mammalian) (Homo sapiens, UniProt Q96RU2).
T1 construct: Expression of USP28 (1-1077)-TEV-6*His (pTT5 vector); made in house; host or cells: Expi293f cells (pTT5 vector)
T1 sequence (Q96RU2 1-1077): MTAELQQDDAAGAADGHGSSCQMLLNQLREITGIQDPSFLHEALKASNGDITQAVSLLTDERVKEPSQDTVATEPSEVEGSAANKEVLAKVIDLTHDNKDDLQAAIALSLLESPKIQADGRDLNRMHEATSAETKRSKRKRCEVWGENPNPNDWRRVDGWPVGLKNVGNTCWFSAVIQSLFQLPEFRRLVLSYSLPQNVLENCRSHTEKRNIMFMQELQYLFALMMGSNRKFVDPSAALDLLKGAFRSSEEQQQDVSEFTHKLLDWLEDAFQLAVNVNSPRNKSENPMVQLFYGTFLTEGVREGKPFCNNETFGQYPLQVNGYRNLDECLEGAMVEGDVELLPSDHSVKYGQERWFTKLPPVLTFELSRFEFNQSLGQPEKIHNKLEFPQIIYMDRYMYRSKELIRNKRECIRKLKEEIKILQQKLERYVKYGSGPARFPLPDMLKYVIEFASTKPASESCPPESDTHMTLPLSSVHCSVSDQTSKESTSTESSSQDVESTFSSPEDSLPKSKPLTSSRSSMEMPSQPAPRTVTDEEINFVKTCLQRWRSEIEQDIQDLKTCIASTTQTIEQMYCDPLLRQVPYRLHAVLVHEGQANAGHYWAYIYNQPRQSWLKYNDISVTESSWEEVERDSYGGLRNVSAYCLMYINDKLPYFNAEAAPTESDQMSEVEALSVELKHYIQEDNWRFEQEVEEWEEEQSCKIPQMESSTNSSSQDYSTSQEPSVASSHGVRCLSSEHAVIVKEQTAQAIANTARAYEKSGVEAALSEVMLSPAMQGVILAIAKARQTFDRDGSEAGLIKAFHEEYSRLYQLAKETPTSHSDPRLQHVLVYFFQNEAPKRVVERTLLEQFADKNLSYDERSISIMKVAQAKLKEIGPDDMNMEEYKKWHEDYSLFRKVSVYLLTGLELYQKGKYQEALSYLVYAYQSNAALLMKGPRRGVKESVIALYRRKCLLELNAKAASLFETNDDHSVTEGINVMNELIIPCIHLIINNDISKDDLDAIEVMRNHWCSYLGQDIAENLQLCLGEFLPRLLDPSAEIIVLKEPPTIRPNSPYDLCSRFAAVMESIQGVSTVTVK
As to the kind of experiment: Ubiquitin-Rhodamine 110 Assay for USP28 Activity, Example A-1(a). Type of experiment: biochemical. Particulars: Ubiquitin-Rhodamine 110 assay, Example A-1(a); read-out: USP28 A-1(a) IC50 range. An outline of the steps: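 IC50 from 4-parameter logistic fit of percent inhibition versus no-enzyme and DMSO controls; compounds 25 μM to 1.3 nM, 3-fold. Ub-Rh110 cleavage (25 nM, below Km) by […] mammalian-expressed USP28-FL-His ran 45 min at room temperature, stopped with 10 mM citric acid, read ex 485/em 535.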

As usually defined, the IC50 is the concentration that inhibits the measured activity by half. As for `CO[C@H]1CN(c2cc3c(c(F)c2C#N)C[C@@H](NC(=O)c2sc4nc(C)cnc4c2N)CO3)C[C@@H]1N` [Example 199, 7-amino-N-[(3R)-7-[(3S,4S)-3-amino-4-methoxypyrrolidin-1-yl]-6-cyano-5-fluoro-3,4-dihydro-2H-1-benzopyran-3-yl]-3-methylthieno[2,3-b]pyrazine-6-carboxamide], the IC50 was in the range of 1 to 50 nM.
As for `CO[C@H]1CN(c2cc3c(c(F)c2C#N)C[C@@H](NC(=O)c2sc4nc(C)ccc4c2N)CO3)C[C@@H]1N` [Example 200], the concentration for half-maximal inhibition (IC50) was 1 to 50 nM.
As for `CO[C@H]1CN(c2cc3c(cc2C#N)C[C@@H](NC(=O)c2sc4nc(C)ccc4c2N)CC3)C[C@@H]1N` [Example 201, 3-amino-N-[(2S)-6-[(3S,4S)-3-amino-4-methoxypyrrolidin-1-yl]-7-cyano-1,2,3,4-tetrahydronaphthalen-2-yl]-6-methylthieno[2,3-b]pyridine-2-carboxamide], the IC50 lay in the range of 1 to 50 nM.
The result for `Cc1ccc2c(N)c(C(=O)N[C@H]3COc4cc(N5C[C@H](OC(C)C)[C@@H](N)C5)ccc4C3)sc2n1` [Example 202, 3-amino-N-[(3R)-7-[(3S,4S)-3-amino-4-(propan-2-yloxy)pyrrolidin-1-yl]-3,4-dihydro-2H-1-benzopyran-3-yl]6-methylthieno[2,3-b]pyridine-2-carboxamide] reads 1 to 50 nM; that for `CO[C@H]1CN(c2ccc3c(n2)CC[C@H](NC(=O)c2sc4nc(C)c(F)cc4c2N)C3)C[C@@H]1N` [Example 203, 3-amino-N-[(6S)-2-[(3S,4S)-3-amino-4-methoxypyrrolidin-1-yl]-5,6,7,8-tetrahydroquinolin-6-yl}-5-fluoro-6-methylthieno[2,3-b]pyridine-2-carboxamide], 50 to 200 nM.
For `Cc1nc2sc(C(=O)N[C@H]3CCc4nc(N5CCNCC5)ccc4C3)c(N)c2cc1F` [Example 204, 3-amino-5-fluoro-6-methyl-N-[(6S)-2-(piperazin-1-yl)-5,6,7,8-tetrahydroquinolin-6-yl]thieno[2,3-b]pyridine-2-carboxamide], the IC50 lay within 1 to 50 nM.
Regarding `Cc1ccc2c(N)c(C(=O)N[C@H]3Cc4ccc(N5CCNCC5)nc4[C@@H](C)C3)sc2n1` [Example 206, 3-amino-6-methyl-N-[(6R,8S)-8-methyl-2-(piperazin-1-yl)-5,6,7,8-tetrahydroquinolin-6-yl]thieno[2,3-b]pyridine-2-carboxamide], the IC50 was in the range of 50 to 200 nM.
The result for `Cc1ccc2c(N)c(C(=O)N[C@@H]3Cc4ccc(N5CCNCC5)nc4[C@H](C)C3)sc2n1` [Example 207, 3-amino-6-methyl-N-[(6S,8R)-8-methyl-2-(piperazin-1-yl)-5,6,7,8-tetrahydroquinolin-6-yl]thieno[2,3-b]pyridine-2-carboxamide] reads 200 to 2000 nM; that for `Cc1ccc2c(N)c(C(=O)N[C@H]3Cc4ccc(N5CCNCC5)nc4[C@H](C)C3)sc2n1` [Example 208, 3-amino-6-methyl-N-[(6R,8R)-8-methyl-2-(piperazin-1-yl)-5,6,7,8-tetrahydroquinolin-6-yl]thieno[2,3-b]pyridine-2-carboxamide], 1 to 50 nM.
As to `Cc1ccc2c(N)c(C(=O)N[C@H]3COc4cc(N5C6CNCC5COC6)ccc4C3)sc2n1` [Example 209, 3-amino-6-methyl-N-[(3R)-7-{3-oxa-7,9-diazabicyclo[3.3.1]nonan-9-yl}-3,4-dihydro-2H-1-benzopyran-3-yl]thieno[2,3-b]pyridine-2-carboxamide], the IC50 was 1 to 50 nM.
Take `CO[C@@]1(C)CN(c2ccc3c(n2)CC[C@H](NC(=O)c2sc4nc(C)ccc4c2N)C3)C[C@@H]1N` [Example 210, 3-amino-N-[(6S)-2-[(3S,4S)-4-amino-3-methoxy-3-methylpyrrolidin-1-yl]-5,6,7,8-tetrahydroquinolin-6-yl]-6-methylthieno[2,3-b]pyridine-2-carboxamide]: the IC50 fell in the range of 50 to 200 nM.
The result for `CO[C@]1(C)CN(c2ccc3c(n2)CC[C@H](NC(=O)c2sc4nc(C)ccc4c2N)C3)C[C@H]1N` [Example 211, 3-amino-N-[(6S)-2-[(3R,4R)-4-amino-3-methoxy-3-methylpyrrolidin-1-yl]-5,6,7,8-tetrahydroquinolin-6-yl]-6-methylthieno[2,3-b]pyridine-2-carboxamide] reads 50 to 200 nM; that for `CN[C@H]1CN(c2ccc3c(c2)OC[C@H](NC(=O)c2sc4nc(C)ccc4c2N)C3)C[C@@H]1OC` [Example 212, 3-amino-N-[(3R)-7-[(3S,4S)-3-methoxy-4-(methylamino)pyrrolidin-1-yl]-3,4-dihydro-2H-1-benzopyran-3-yl]-6-methylthieno[2,3-b]pyridine-2-carboxamide], 1 to 50 nM; that for `CO[C@H]1CN(c2ccc3c(c2)OC[C@H](NC(=O)c2sc4nc(C)ccc4c2N)C3)C[C@@H]1NC(C)=O` [Example 213, 3-amino-N-[(3R)-7-[(3S,4S)-3-acetamido-4-methoxypyrrolidin-1-yl]-3,4-dihydro-2H-1-benzopyran-3-yl]-6-methylthieno[2,3-b]pyridine-2-carboxamide], 50 to 200 nM.
On to `Cc1ccc2c(N)c(C(=O)N[C@H]3COc4cc(N5C[C@H](N)C(C)(C)C5)ccc4C3)sc2n1` [Example 214, 3-amino-N-[(3R)-7-[(4R)-4-amino-3,3-dimethylpyrrolidin-1-yl]-3,4-dihydro-2H-1-benzopyran-3-yl]-6-methylthieno[2,3-b]pyridine-2-carboxamide], for which the IC50 lay within 1 to 50 nM.
As to `Cc1ccc2c(N)c(C(=O)N[C@H]3COc4cc(N5C[C@@H](N)C(C)(C)C5)ccc4C3)sc2n1` [Example 215, 3-amino-N-[(3R)-7-[(4S)-4-amino-3,3-dimethylpyrrolidin-1-yl]-3,4-dihydro-2H-1-benzopyran-3-yl]-6-methylthieno[2,3-b]pyridine-2-carboxamide], the half-maximal inhibitory concentration (IC50) is 1 to 50 nM.
Consider `Cc1ccc2c(N)c(C(=O)N[C@H]3CCc4nc(N5CC[C@H]6CNC[C@H]65)ccc4C3)sc2n1` [Example 216, N-[(6S)-2-[(3aS,6aS)-octahydropyrrolo[2,3-c]pyrrol-1-yl}-5,6,7,8-tetrahydroquinolin-6-yl]-3-amino-6-methylthieno[2,3-b]pyridine-2-carboxamide], for which the IC50 lay within 1 to 50 nM.
Consider `Cc1ccc2c(N)c(C(=O)N[C@H]3CCc4nc(N5CC[C@@H]6CNC[C@@H]65)ccc4C3)sc2n1` [Example 217, N-[(6S)-2-[(3aR,6aR)-octahydropyrrolo[2,3-c]pyrrol-1-yl]-5,6,7,8-tetrahydroquinolin-6-yl]-3-amino-6-methylthieno[2,3-b]pyridine-2-carboxamide], for which the IC50 was in the range of 1 to 50 nM.
The result for `Cc1cc(C)c2c(N)c(C(=O)N[C@H]3CCc4nc(N5CC[C@H]6CNC[C@H]65)ccc4C3)sc2n1` [Example 218, N-[(6S)-2-[(3aS 6aS)-octahydropyrrolo[2,3-c]pyrrol-1-yl]-5,6,7,8-tetrahydroquinolin-6-yl]-3-amino-4,6-dimethylthieno[2,3-b]pyridine-2-carboxamide] reads 50 to 200 nM; that for `Cc1cc(C)c2c(N)c(C(=O)N[C@H]3CCc4nc(N5CC[C@@H]6CNC[C@@H]65)ccc4C3)sc2n1` [Example 219, N-[(6S)-2-[(3aR,6aR)-octahydropyrrolo[2,3-c]pyrrol-1-yl]-5,6,7,8-tetrahydroquinolin-6-yl]-3-amino-4,6-dimethylthieno[2,3-b]pyridine-2-carboxamide], 1 to 50 nM.
Turning to `Cc1ccc2c(N)c(C(=O)N[C@H]3COc4cc(N5CC[C@H]6CNC[C@H]65)cc(F)c4C3)sc2n1` [Example 220, N-[(3R)-7-[(3aS,6aS)-octahydropyrrolo[2,3-c]pyrrol-1-yl]-5-fluoro-3,4-dihydro-2H-1-benzopyran-3-yl]-3-amino-6-methylthieno[2,3-b]pyridine-2-carboxamide], the IC50 lay within 1 to 50 nM.
Consider `Cc1ccc2c(N)c(C(=O)N[C@H]3COc4cc(N5CC[C@@H]6CNC[C@@H]65)cc(F)c4C3)sc2n1` [Example 221, N-[(3R)-7-[(3aR,6aR)-octahydropyrrolo[2,3-c]pyrrol-1-yl]-5-fluoro-3,4-dihydro-2H-1-benzopyran-3-yl]-3-amino-6-methylthieno[2,3-b]pyridine-2-carboxamide], for which the 50% inhibitory concentration (IC50) was 1 to 50 nM.

For the origin of these results see patent US11524966B1 (Valo Early Discovery, Inc., priority 2017, dated 2022).
